Test results taken from PMC4770715, “LIM kinase inhibitors disrupt mitotic microtubule organization and impair tumor cell proliferation” (Oncotarget, 2015).

Experiments:
Assay in all cases: biochemical
Parameters in all cases: KINOMEscan active-site competition binding, percent of control (100 = no competition)
Conditions in all cases: competition binding, percent control
PDGFRA = PDGFRA (Homo sapiens, UniProt P16234)
EGFR(G719C) = EGFR(G719C) (Homo sapiens, UniProt P00533, G719C)
MAP3K4 = MAP3K4 (Homo sapiens, UniProt Q9Y6R4)
PAK3 = PAK3 (Homo sapiens, UniProt O75914)
FLT3(K663Q) = FLT3(K663Q) (Homo sapiens, UniProt P36888, K663Q)
BLK = BLK (Homo sapiens, UniProt P51451)
BLK, sequence (P51451 whole entry): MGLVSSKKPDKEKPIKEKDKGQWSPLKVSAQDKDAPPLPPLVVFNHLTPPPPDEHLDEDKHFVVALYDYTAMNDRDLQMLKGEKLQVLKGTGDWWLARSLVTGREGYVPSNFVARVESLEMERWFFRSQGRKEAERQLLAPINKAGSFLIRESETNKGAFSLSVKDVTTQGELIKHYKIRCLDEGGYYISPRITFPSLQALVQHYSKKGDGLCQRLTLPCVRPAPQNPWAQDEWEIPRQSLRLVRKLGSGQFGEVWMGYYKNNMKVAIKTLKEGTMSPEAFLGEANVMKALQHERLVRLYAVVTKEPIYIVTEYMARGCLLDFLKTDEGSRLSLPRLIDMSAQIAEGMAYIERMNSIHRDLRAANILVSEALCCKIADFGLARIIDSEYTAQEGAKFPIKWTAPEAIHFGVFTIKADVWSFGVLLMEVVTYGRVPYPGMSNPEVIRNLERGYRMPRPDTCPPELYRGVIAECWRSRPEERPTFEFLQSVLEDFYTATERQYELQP

MAP4K5 = MAP4K5 (Homo sapiens, UniProt Q9Y4K4)
ZAK = biological target: T1, ZAK (Homo sapiens, UniProt Q9NYL2)
T1 construct: gene MAP3K20

EGFR(T790M) = EGFR(T790M) (Homo sapiens, UniProt P00533, T790M)
GAK = GAK (Homo sapiens, UniProt O14976)
PIP5K2C = biological target: T2, PIP5K2C (Homo sapiens, UniProt Q8TBX8)
T2 construct: gene PIP4K2C
T2 sequence (Q8TBX8 whole entry): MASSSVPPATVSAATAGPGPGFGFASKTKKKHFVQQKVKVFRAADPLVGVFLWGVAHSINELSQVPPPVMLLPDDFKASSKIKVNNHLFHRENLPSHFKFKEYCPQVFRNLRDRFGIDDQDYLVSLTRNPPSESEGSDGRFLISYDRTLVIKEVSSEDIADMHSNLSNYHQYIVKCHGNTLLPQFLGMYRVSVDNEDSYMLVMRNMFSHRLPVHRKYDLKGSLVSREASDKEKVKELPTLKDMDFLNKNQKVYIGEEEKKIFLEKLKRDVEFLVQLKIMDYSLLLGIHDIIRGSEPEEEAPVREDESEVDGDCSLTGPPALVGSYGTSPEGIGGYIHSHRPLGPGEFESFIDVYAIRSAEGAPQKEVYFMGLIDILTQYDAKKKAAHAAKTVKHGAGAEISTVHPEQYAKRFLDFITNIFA

LCK = LCK (Homo sapiens, UniProt P06239)
LCK, sequence (P06239 whole entry): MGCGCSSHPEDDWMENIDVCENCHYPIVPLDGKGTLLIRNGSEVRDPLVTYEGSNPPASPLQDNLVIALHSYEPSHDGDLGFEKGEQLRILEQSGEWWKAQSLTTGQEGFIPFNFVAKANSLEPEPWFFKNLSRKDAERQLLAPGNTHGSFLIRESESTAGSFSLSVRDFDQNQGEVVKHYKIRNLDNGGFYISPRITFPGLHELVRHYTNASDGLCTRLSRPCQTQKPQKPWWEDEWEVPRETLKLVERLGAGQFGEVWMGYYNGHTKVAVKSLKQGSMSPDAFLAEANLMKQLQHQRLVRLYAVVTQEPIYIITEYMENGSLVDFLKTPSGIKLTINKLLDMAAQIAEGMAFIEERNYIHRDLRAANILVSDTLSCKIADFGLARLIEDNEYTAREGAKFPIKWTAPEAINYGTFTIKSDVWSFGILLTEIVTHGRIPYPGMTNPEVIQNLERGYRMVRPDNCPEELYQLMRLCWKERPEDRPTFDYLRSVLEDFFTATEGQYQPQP

CDKL1 = CDKL1 (Homo sapiens, UniProt Q00532)
CDKL1, sequence (Q00532 whole entry): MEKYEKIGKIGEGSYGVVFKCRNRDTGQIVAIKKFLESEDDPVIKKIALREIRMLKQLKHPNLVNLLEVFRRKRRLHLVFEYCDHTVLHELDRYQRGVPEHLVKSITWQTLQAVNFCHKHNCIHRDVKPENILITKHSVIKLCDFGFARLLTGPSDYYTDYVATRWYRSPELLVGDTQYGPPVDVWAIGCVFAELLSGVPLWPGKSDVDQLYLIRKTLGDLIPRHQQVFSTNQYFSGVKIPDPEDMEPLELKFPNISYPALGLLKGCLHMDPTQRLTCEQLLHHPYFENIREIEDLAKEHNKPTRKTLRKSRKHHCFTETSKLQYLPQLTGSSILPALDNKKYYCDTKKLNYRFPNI

MST3 = biological target: T3, MST3 (Homo sapiens, UniProt Q9Y6E0)
T3 construct: gene STK24
T3 sequence (Q9Y6E0 whole entry): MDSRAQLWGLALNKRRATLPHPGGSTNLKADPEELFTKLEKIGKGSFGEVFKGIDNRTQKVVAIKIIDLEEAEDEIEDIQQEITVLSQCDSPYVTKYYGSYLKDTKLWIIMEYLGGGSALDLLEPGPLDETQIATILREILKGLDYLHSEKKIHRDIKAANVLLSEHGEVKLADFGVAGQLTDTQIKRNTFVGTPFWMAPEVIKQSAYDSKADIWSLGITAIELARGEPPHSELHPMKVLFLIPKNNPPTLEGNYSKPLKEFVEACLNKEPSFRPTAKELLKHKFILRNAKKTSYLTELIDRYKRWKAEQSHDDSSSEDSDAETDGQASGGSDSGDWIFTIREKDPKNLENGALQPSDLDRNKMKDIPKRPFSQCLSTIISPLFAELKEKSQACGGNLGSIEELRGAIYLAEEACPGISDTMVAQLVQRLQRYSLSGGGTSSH

EGFR(S752-I759del) = EGFR(S752-I759del) (Homo sapiens, UniProt P00533, DEL752-759)
PAK4 = PAK4 (Homo sapiens, UniProt O96013)
PAK4, sequence (O96013 whole entry): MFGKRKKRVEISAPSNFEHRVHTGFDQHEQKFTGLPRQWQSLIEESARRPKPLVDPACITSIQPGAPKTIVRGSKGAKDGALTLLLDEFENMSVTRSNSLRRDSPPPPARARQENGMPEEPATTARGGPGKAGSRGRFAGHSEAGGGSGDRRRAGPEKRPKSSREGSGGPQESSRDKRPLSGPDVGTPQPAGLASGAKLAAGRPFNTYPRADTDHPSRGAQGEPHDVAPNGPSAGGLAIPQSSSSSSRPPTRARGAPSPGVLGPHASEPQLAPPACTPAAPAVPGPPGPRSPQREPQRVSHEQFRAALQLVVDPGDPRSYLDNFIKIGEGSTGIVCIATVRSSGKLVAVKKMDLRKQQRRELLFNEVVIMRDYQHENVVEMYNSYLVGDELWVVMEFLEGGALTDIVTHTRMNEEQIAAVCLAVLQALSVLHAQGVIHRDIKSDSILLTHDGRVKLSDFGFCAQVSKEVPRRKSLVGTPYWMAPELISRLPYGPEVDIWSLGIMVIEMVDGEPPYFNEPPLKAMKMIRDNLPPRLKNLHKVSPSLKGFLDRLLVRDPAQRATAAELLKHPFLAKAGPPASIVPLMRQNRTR

MARK1 = MARK1 (Homo sapiens, UniProt Q9P0L2)
MARK1, sequence (Q9P0L2 whole entry): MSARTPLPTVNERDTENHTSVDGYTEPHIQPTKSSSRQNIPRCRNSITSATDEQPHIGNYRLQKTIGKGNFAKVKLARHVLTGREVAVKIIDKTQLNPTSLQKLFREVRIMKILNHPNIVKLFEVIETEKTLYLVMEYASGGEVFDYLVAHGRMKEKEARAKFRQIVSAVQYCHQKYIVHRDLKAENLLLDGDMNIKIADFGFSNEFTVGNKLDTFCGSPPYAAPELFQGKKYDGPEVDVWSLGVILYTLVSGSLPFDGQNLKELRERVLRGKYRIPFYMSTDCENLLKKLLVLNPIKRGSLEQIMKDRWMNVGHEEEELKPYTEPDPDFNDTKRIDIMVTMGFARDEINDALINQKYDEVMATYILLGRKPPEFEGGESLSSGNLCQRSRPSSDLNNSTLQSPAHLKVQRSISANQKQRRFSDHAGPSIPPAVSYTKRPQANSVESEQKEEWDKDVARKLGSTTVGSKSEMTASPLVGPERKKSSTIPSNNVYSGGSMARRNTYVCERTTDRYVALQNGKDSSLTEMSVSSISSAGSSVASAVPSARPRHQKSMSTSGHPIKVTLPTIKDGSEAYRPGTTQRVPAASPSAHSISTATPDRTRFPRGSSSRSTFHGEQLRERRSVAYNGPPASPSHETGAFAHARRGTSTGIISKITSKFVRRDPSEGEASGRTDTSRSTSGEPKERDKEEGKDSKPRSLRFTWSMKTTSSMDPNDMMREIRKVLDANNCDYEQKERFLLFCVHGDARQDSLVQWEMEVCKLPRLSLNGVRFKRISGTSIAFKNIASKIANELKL

EPHA6 = EPHA6 (Homo sapiens, UniProt Q9UF33)
MLK2 = biological target: T4, MLK2 (Homo sapiens, UniProt Q02779)
T4 construct: gene MAP3K10

CAMK2G = CAMK2G (Homo sapiens, UniProt Q13555)
CAMK2G, sequence (Q13555 whole entry): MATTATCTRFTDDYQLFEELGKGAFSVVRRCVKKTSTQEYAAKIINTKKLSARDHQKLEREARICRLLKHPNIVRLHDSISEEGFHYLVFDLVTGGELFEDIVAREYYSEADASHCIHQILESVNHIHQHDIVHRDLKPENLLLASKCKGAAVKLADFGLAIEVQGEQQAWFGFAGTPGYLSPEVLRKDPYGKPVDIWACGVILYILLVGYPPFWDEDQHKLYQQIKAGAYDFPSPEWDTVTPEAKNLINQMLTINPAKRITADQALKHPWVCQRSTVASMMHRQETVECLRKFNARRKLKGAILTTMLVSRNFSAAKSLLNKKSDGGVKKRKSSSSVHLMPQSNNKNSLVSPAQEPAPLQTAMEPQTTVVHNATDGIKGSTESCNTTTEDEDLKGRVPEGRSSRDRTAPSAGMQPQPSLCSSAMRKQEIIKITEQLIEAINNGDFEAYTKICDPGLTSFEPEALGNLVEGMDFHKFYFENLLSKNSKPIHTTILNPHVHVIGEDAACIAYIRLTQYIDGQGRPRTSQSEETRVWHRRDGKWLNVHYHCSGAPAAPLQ

CAMK2D = CAMK2D (Homo sapiens, UniProt Q13557)
CAMK2D, sequence (Q13557 whole entry): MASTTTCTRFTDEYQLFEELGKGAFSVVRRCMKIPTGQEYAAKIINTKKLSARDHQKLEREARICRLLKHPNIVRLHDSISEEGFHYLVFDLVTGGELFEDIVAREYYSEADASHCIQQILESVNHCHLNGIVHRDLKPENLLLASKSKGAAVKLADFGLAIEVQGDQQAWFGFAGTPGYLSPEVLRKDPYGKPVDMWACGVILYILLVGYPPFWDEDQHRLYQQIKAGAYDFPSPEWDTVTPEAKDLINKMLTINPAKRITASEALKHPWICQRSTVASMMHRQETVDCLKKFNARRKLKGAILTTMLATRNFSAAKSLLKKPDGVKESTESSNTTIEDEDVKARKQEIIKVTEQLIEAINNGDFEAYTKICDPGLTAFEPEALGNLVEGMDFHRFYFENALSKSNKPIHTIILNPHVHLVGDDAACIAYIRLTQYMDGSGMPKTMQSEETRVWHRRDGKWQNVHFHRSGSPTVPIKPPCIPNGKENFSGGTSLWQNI

EPHA8 = EPHA8 (Homo sapiens, UniProt P29322)
DRAK2 = biological target: T5, DRAK2 (Homo sapiens, UniProt O94768)
T5 construct: gene STK17B

| SMILES | remaining binding at 10 µM (PDGFRA) [%] | remaining binding at 10 µM (EGFR(G719C)) [%] | remaining binding at 10 µM (MAP3K4) [%] | remaining binding at 10 µM (PAK3) [%] | remaining binding at 10 µM (FLT3(K663Q)) [%] | remaining binding at 10 µM (BLK) [%] | remaining binding at 10 µM (MAP4K5) [%] | remaining binding at 10 µM (ZAK) [%] | remaining binding at 10 µM (EGFR(T790M)) [%] | remaining binding at 10 µM (GAK) [%] | remaining binding at 10 µM (PIP5K2C) [%] | remaining binding at 10 µM (LCK) [%] | remaining binding at 10 µM (CDKL1) [%] | remaining binding at 10 µM (MST3) [%] | remaining binding at 10 µM (EGFR(S752-I759del)) [%] | remaining binding at 10 µM (PAK4) [%] | remaining binding at 10 µM (MARK1) [%] | remaining binding at 10 µM (EPHA6) [%] | remaining binding at 10 µM (MLK2) [%] | remaining binding at 10 µM (CAMK2G) [%] | other results |
| --- | --- | --- | --- | --- | --- | --- | --- | --- | --- | --- | --- | --- | --- | --- | --- | --- | --- | --- | --- | --- | --- |
| COc1ccc(-c2cnccc2-c2cnc(NC(=O)C(C)C)s2)c(C(F)(F)F)c1 [CRT0105446, N-{5-[3-(4-Methoxy-2-trifluoromethyl-phenyl)-pyridin-4-yl]-hiazol-2-yl}-isobutyramide] | 66 | 89 | 99 | 4.6 | 34 | 100 | 100 | 100 | 78 | 92 | 3 | 100 | 80 | 72 | 84 | 82 | 87 | 86 | 69 | 80 | remaining binding at 10 µM (CAMK2D): 72%; remaining binding at 10 µM (EPHA8): 100%; remaining binding at 10 µM (DRAK2): 100% |
| Cc1ccc(-c2cnccc2-c2cnc(Nc3ccc(O)cc3)s2)c(Cl)c1 [CRT0105950, 4-{5-[3-(2-Chloro-4-methyl-phenyl)-pyridin-4-yl]-thiazol-2-ylamino}-phenol] | 48 | 71 | 100 | 4.1 | 0.5 | 9.2 | 32 | 9 | 63 | 22 | 2.3 | 20 | 77 | 40 | 69 | 79 | 5.8 | 30 | 40 | 49 | remaining binding at 10 µM (CAMK2D): 29%; remaining binding at 10 µM (EPHA8): 88%; remaining binding at 10 µM (DRAK2): 100% |
